Assay results taken from ChEMBL document CHEMBL6092140, “Structure-activity relationship study of small-molecule inhibitor of Atg12-Atg3 protein-protein interaction” (Bioorg Med Chem Lett, 2024).
Calls of active or inactive are those of the source. The calls are words filed in the database; no cut-off is given here.

Legend:
[1] = Inhibition of wild type ATG12-ATG3 protein protein interaction (unknown origin) expressed in HEK293T cells preincubated for ATG12 for 1 hr followed by ATG3 addition by luminescence based microplate analysis; type: cell-based, Homo sapiens
[2] = molecular target: Casein kinase II subunit alpha' (Homo sapiens) (UniProt P19784); test: Inhibition of […] (unknown origin) assessed as residual activity relative to control; design: concentration or dose not given beside the values
Chain of Casein kinase II subunit alpha' (Homo sapiens) (P19784 whole entry, looked up): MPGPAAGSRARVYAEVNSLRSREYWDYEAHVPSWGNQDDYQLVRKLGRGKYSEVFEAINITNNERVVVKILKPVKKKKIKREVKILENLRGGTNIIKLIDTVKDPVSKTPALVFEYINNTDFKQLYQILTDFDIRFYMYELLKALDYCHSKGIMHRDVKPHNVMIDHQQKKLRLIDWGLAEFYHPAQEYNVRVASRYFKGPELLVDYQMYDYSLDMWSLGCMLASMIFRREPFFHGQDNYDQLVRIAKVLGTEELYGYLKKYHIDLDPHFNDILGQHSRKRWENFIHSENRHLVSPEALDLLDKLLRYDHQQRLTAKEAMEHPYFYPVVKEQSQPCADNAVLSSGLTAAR

SMILES	IC50 [1] [µM]	Activity [2]
COc1nc(Nc2cccc(Cl)c2)nc2cc(C(=O)O)ccc12	91	50%
CCc1cn2c(Nc3cccc(Cl)c3)nc3cc(C(=O)O)ccc3c2n1	24	20%
CC(C)c1cn2c(Nc3cccc(Cl)c3)nc3cc(C(=O)O)ccc3c2n1	30	105%
Cn1ncc2c(Nc3cccc(Cl)c3)nc3cc(C(=O)O)ccc3c21	42	35%
O=C(O)c1ccc2c(c1)nc(Nc1cccc(Cl)c1)c1ncsc12	16	1%
O=C(O)c1ccc2c(c1)nc(Nc1cccc(Cl)c1)c1ccsc12	14	-1%
Cc1cn2c(NC3CCCCC3)nc3cc(C(=O)O)ccc3c2n1	> 99	72%
Cn1cnc2c3ccc(C(=O)O)cc3nc(Nc3cccc(Cl)c3)c21	62	55%
O=C(O)c1ccc2c(c1)nc(Nc1cccc(Cl)c1)n1cc(-c3ccccc3)nc21	9	114%
Cc1cn2c(Nc3cccc(F)c3)nc3cc(C(=O)O)ccc3c2n1	90	35%
O=C(O)c1ccc2ccc(Nc3cccc(Cl)c3)nc2c1	50	20%
Cc1cn2c(Nc3cccc(C(F)(F)F)c3)nc3cc(C(=O)O)ccc3c2n1	30	48%
O=C(O)c1ccc2c(c1)nc(Nc1cccc(Cl)c1)c1ccncc12 [SILMITASERTIB]	27	2%
O=C(O)c1ccc2cnc(Nc3cccc(Cl)c3)nc2c1	62	-4%
O=C(O)c1ccc2c(c1)nc(Nc1cccc(Cl)c1)n1ccnc21	14	31%
Cc1cn2c(N(C)c3cccc(Cl)c3)nc3cc(C(=O)O)ccc3c2n1	> 99	75%
Cn1ncc2c3ccc(C(=O)O)cc3nc(Nc3cccc(Cl)c3)c21	19	1%
Cc1cn2c(NC34CC5CC(CC(C5)C3)C4)nc3cc(C(=O)O)ccc3c2n1	25	83%
O=C(O)c1ccc2c(Cc3ccccc3)cc(Nc3cccc(Cl)c3)nc2c1	> 99	101%
Cc1cn2c(Nc3cccc(C#N)c3)nc3cc(C(=O)O)ccc3c2n1	8	38%
Cc1cn2c(Nc3cccc(C(C)C)c3)nc3cc(C(=O)O)ccc3c2n1	41	31%
Cc1cn2c(Nc3cccc(Cl)c3)nc3cc(P(=O)(O)O)ccc3c2n1	> 99	95%
Cc1nsc2c1c(Nc1cccc(Cl)c1)nc1cc(C(=O)O)ccc12	11	-1%
Clc1cccc(Nc2nc3cc(-c4nnn[nH]4)ccc3c3ncccc23)c1	64	53%

SMILES	IC50 [1] [µM]	Activity [2]
O=C(O)c1ccc2c(c1)nc(Nc1cccc(Cl)c1)c1cccnc12	6	13%
Cc1cn2c(Nc3ccnc(Cl)c3)nc3cc(C(=O)O)ccc3c2n1	71	73%
CC1=CN2C(Nc3cccc(Cl)c3)=Nc3cc(C(N)=O)ccc3C2N1 (centres undefined)	> 99	109%
O=C(O)c1ccc2c(Cc3ccccc3)nc(Nc3cccc(Cl)c3)nc2c1	> 99	96%
O=C(O)c1ccc2c(c1)nc(Nc1cccc(Cl)c1)c1cnccc12	10	28%
Cc1scc2c1c(Nc1cccc(Cl)c1)nc1cc(C(=O)O)ccc12	14	33%
Cc1cn2c(Nc3ccc(Cl)cc3)nc3cc(C(=O)O)ccc3c2n1	> 99	76%
Cc1cn2c(Nc3cccc(Cl)c3)nc3cc(C(=O)O)ccc3c2n1	8	26%
N/C(=N\O)c1ccc2c(c1)nc(Nc1cccc(Cl)c1)c1cccnc12	> 99	inactive
Cc1cn2c(Nc3cccc(I)c3)nc3cc(C(=O)O)ccc3c2n1	10	11%
O=C(O)c1ccc2c(c1)N=C(Nc1cccc(Cl)c1)N1CCCN=C21	> 99	87%
O=C(O)c1ccc2c(c1)nc(Nc1cccc(Cl)c1)n1cc(Cc3ccccc3)nc21	14	81%
CC1=CN2C(Nc3cccc(Cl)c3)=Nc3cc(-c4nnn[nH]4)ccc3C2N1 (centres undefined)	73	80%
O=C(O)c1ccc2c(c1)N=C(Nc1cccc(Cl)c1)N1CCN=C21	60	128%
O=c1[nH]nc(-c2ccc3c(c2)nc(Nc2cccc(Cl)c2)c2cccnc23)o1	72	52%
Cc1cnc2c3ccc(C(=O)O)cc3nc(Nc3cccc(Cl)c3)n12	24	29%
CC(=O)Oc1ccc(COC(=O)c2ccc3c(c2)nc(Nc2cccc(Cl)c2)c2cccnc23)cc1	53	inactive
CC1=CN2C(Nc3cccc(Cl)c3)=Nc3cc(-c4noc(=O)[nH]4)ccc3C2N1 (centres undefined)	92	105%
Cc1cn2c(Nc3cccc(OC(F)(F)F)c3)nc3cc(C(=O)O)ccc3c2n1	37	42%
Cc1cn2c(NC(C)(C)C)nc3cc(C(=O)O)ccc3c2n1	> 99	104%
O=C(O)c1ccc2c(c1)nc(Oc1cccc(Cl)c1)c1ccncc12	51	4%
O=C(O)c1ccc2c(c1)nc(Nc1cccc(Cl)c1)c1ccccc12	45	36%
Cc1cn2c(Nc3cccc(C(C)(C)C)c3)nc3cc(C(=O)O)ccc3c2n1	24	102%
